biological target: T1, Thermolysin (Bacillus thermoproteolyticus, UniProt P00800); test: Binding affinity to Bacillus thermoproteolyticus thermolysin by UV-VIS spectrophotometric analysis in presence of 2-furanacryloyl-Gly-Leu-NH2
T1 sequence (P00800 whole entry): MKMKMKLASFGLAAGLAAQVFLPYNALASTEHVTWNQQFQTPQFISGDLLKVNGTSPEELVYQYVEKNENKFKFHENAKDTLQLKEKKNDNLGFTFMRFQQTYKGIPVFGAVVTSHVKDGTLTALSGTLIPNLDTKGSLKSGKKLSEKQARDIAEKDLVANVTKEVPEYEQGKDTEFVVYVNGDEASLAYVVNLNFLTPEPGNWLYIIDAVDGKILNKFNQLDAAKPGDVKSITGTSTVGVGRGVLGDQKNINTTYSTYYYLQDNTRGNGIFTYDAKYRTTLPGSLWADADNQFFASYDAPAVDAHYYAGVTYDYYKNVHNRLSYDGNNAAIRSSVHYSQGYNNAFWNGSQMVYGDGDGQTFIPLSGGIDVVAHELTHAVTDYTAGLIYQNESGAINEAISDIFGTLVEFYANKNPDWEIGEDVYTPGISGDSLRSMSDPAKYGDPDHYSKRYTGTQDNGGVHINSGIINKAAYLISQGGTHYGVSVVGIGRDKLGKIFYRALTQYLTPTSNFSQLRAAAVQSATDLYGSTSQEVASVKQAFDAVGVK

Question: For CC(C)C[C@H](NP(=O)(O)CNC(=O)OCc1ccccc1)C(=O)NCC(=O)O, which Ki is on record?
Answer: 472 nM

Question: How did the Ki turn out when CC(C)C[C@H](NP(=O)(O)CNC(=O)OCc1ccccc1)C(=O)N[C@@H](C)C(=O)O was run?
Answer: 19.1 nM

Question: CNC(=O)[C@H](CC(C)C)NP(=O)(O)CNC(=O)OCc1ccccc1 was tested. Which Ki did it give?
Answer: 902 nM

Question: For CCNC(=O)[C@H](CC(C)C)NP(=O)(O)CNC(=O)OCc1ccccc1, which Ki is on record?
Answer: 289 nM
